# How the values were obtained:
# [1] = system: Erysiphe Graminis f.sp. Tritici; assay: Action against Erysiphe graminis f.sp. tritici (wheat powdery mildew), leaf segments, preventive; type: in vivo; settings: Blumeria graminis, foliar, 168 h, 0.02% active ingredient, assessed 7 days after inoculation, read-out: inhibition (preventive fungicidal activity)
# Procedure: (§1) Wheat leaf segments were placed on agar in multiwell plates (24-well format) and sprayed with test solutions (0.02% active ingredient). After drying, the leaf disks were inoculated with a spore suspension of the fungus. After appropriate incubation the activity of a compound was assessed 7 days after inoculation as preventive fungicidal activity.
# Botryotinia fuckelianal = assay: Action against Botryotinia fuckeliana, liquid culture (gray mould); type: cell-based; settings: Botrytis cinerea; nutrient broth, 0.02% active ingredient, 24° C., photometrically after 3-4 days; read-out: inhibition of growth
# Procedure: (§2) Conidia of the fungus from cryogenic storage were directly mixed into nutrient broth. After placing a (DMSO) solution (0.02% active ingredient) of the test compounds into a microtiter plate (96-well format) the nutrient broth containing the fungal spores was added. The test plates were incubated at 24° C. and the inhibition of growth was determined photometrically after 3-4 days.
# Mycosphaerella arachidis = assay: Action against Mycosphaerella arachidis, liquid culture (early leaf spot); type: cell-based; settings: PDB potato dextrose broth, 0.02% active ingredient, 24° C., photometrically after 6-7 days, read-out: inhibition of growth
# Procedure: as §2, with “broth (PDB potato dextrose broth).” for “broth.”, “solution” for “solution (0.02% active ingredient)”, “compounds (0.02% active ingredient)” for “compounds”, “measured” for “determined”, “6-7” for “3-4”
# Pyrenophora teres = assay: Action against Pyrenophora teres (net blotch) on barley leaf segments; type: in vivo; settings: foliar, 96 h, 0.02% active ingredient, assessed 4 days after inoculation, read-out: inhibition (preventive fungicidal activity)
# Procedure: as §1, with “Barley” for “Wheat”, “4” for “7”
# Puccinia Recondita [2] = assay: Preventive action against Puccinia recondita (brown rust) on wheat leaf segments; type: in vivo; settings: foliar, 192 h, 0.02% active ingredient, assessed 8 days after inoculation, read-out: inhibition (preventive fungicidal activity)
# Excerpt: Wheat leaf segments were placed on agar in multiwell plates (24-well format) and sprayed with test solutions (0.02% active ingredient). After drying, the leaf disks were inoculated with a spore suspension of the fungus.
# Puccinia Recondita [3] = assay: Curative action against Puccinia recondita (brown rust) on wheat leaf segments; type: in vivo; settings: foliar, sprayed one day after inoculation, 0.02% active ingredient, assessed 8 days after inoculation, read-out: inhibition (curative fungicidal activity)
# Excerpt: Wheat leaf segments were placed on agar in multiwell plates (24-well format) and inoculated with a spore suspension of the fungus. One day after inoculation the leaf segments were sprayed with test solutions (0.02% active ingredient).
# Phaeosphaeria nodorum = assay: Preventive action against Phaeosphaeria nodorum (glume blotch) on wheat leaf segments; type: in vivo; settings: Parastagonospora nodorum, foliar, 96 h, 0.02% active ingredient, assessed 4 days after inoculation, read-out: inhibition (preventive fungicidal activity)
# Procedure: Wheat leaf segments were placed on agar in a multiwell plate (24-well format) and sprayed with test solutions (0.02% active ingredient). After drying, the leaf disks were inoculated with a spore suspension of the fungus. After appropriate incubation the activity of a compound was assessed 4 days after inoculation as preventive fungicidal activity.
Structure (SMILES),inhibition at 0.02 % strength [1] [%],inhibition at 0.02 % strength (Botryotinia fuckelianal) [%],inhibition at 0.02 % strength (Mycosphaerella arachidis) [%],inhibition at 0.02 % strength (Pyrenophora teres) [%],inhibition at 0.02 % strength (Puccinia Recondita [2]) [%],melting point [°C],inhibition at 0.02 % strength (Puccinia Recondita [3]) [%],inhibition at 0.02 % strength (Phaeosphaeria nodorum) [%]
"COC(c1csc(Cl)c1Cl)C(C)N(OC)C(=O)c1cn(C)nc1C(F)F (stereo not drawn) [1.037 (diastereoisomer pair 1), 3-difluoromethyl-1-methyl-1H-pyrazole-4-carboxylic acid methoxy-[2-methoxy-1-methyl-2-(4,5-dichlorothiophen-3-yl)ethyl]amide]",≥ 80,≥ 80,≥ 80,≥ 80,≥ 80,–,–,–
"COC(c1csc(Cl)c1Cl)C(C)N(OC)C(=O)c1cn(C)nc1C(F)F (centres unmarked) [Compound 1.037, 3-difluoromethyl-1-methyl-1H-pyrazole-4-carboxylic acid methoxy-[2-methoxy-1-methyl-2-(4,5-dichlorothiophen-3-yl)ethyl]amide]",–,–,–,–,–,80 to 83,–,–
"COC(c1csc(Cl)c1Cl)C(C)N(OC)C(=O)c1cn(C)nc1C(F)F (stereo not drawn) [1.037 (diastereoisomer pair 2), 3-difluoromethyl-1-methyl-1H-pyrazole-4-carboxylic acid methoxy-[2-methoxy-1-methyl-2-(4,5-dichlorothiophen-3-yl)ethyl]amide]",–,–,–,–,–,–,≥ 80,–
"CON(C(=O)c1cn(C)nc1C(F)F)C(C)Cc1c(Cl)sc(Cl)c1Cl (centres unmarked) [Compound 1.001, 3-difluoromethyl-1-methyl-1H-pyrazole-4-carboxylic acid methoxy-[1-methyl-2-(2,4,5-trichlorothiophene-3-yl)ethyl]amide]",≥ 80,≥ 80,≥ 80,≥ 80,≥ 80,70 to 72,≥ 80,≥ 80
"COC(c1c(Cl)sc(Cl)c1Cl)C(C)N(OC)C(=O)c1cn(C)nc1C(F)F (centres unmarked) [Compound 1.016, 3-difluoromethyl-1-methyl-1H-pyrazole-4-carboxylic acid methoxy-[2-methoxy-1-methyl-2-(2,4,5-trichlorothiophene-3-yl)ethyl]amide]",≥ 80,≥ 80,≥ 80,≥ 80,≥ 80,113 to 116,≥ 80,≥ 80
